Results from US6583154B1, “Compounds and methods which modulate feeding behavior and related diseases” (Amgen Inc., priority 1998, dated 2003).
Where a name gives a salt, the structure may show the parent alone.

| melting point | Structure (SMILES) |
| --- | --- |
| > 280 °C | Cc1nc(N2CCCCC2)c2[nH]c(-c3cc(F)c(F)c(F)c3)cc2n1.Cl (hydrate or solvate) [Example 116, 2-Methyl-4-piperidyl-6-(3,4,5-trifluorophenyl)pyrrolo[3,2-d]pyrimidine Hydrochloride Hydrate] |
| 239 to 240 °C | Cc1nc(N2CCCCC2)c2[nH]c(-c3ccccc3)c(Br)c2n1 (as salt: hydrochloride) [Example 211, 7-Bromo-2-methyl-6-phenyl-4-piperidylpyrrolo[3,2-d]pyrimidine Hydrochloride] |
| 270 to 272 °C | Cc1nc(N2CCCCC2)c2[nH]c(-c3ccc(SC(F)(F)F)cc3)cc2n1.Cl (hydrate or solvate) [Example 123, Trifluoro[4-(2-methyl-4-piperidylpyrrolo[4,5-d]pyrimidin-6-yl)phenylthio]methane Hydrochloride Monohydrate] |
| 262 to 264 °C | COc1ccc(-c2cc3nc(C)nc(N4CCCCC4)c3[nH]2)cc1F.Cl (hydrate or solvate) [Example 119, 2-Fluoro-1-methoxy-4-[2-methyl-4-piperidylpyrrolo[4,5-d]pyrimidin-6-yl]benzene Hydrochloride Hydrate] |
| 278 to 280 °C | Cc1nc(N2CCCCC2)c2[nH]c(-c3ccc(C(F)(F)F)cc3)cc2n1.Cl (hydrate or solvate) [Example 111, 2-Methyl-4-piperidyl-6-[4-(trifluoromethyl)phenyl]pyrrolo[3,2-d]pyrimidine Hydrochloride Hydrate] |
| 279 to 280 °C | Cc1nc(N2CC=CC2)c2oc(-c3ccccc3)cc2n1 (as salt: hydrochloride) (hydrate or solvate) [Example 216c, 2-Methyl-6-phenyl-4-(3-pyrrolinyl)furano[3,2-d]pyrimidine Hydrochloride Hydrate] |
| > 296 °C | Cc1nc(N2CCCC2)c2[nH]c(-c3ccccc3)cc2n1 (as salt: hydrochloride) (hydrate or solvate) [Example 193, 2-Methyl-6-phenyl-4-pyrrolidinylpyrrolo[3,2-d]pyrimidine Hydrochloride Monohydrate] |
| 198 to 201 °C | Cc1nc(N2CCCCC2)c2[nH]c(-c3ccc(C)c(C)c3)cc2n1.Cl (hydrate or solvate) [Example 124, 6-(3,4-Dimethylphenyl)-2-methyl-4-piperidylpyrrolo[3,2-d]pyrimidine Hydrochloride Hydrate] |
| > 280 °C | Cc1nc(N2CCCCC2)c2[nH]c(-c3ccc4c(c3)OCO4)cc2n1.Cl (hydrate or solvate) [Example 114, 5-[2-Methyl-4-piperidylpyrrolo[4,5-d]pyrimidin-6-yl]-2H-benzo[d]1,3-dioxolane Hydrochloride Monohydrate] |
| > 280 °C | Cc1nc(N2CCOCC2)c2[nH]c(-c3ccc(F)c(F)c3)cc2n1 (as salt: hydrochloride) [Example 141, 4-[6-(3,4-Difluorophenyl)-2-methylpyrrolo[2,3-e]pyrimidin-4-yl]morpholine Hydrochloride] |
| 242 to 243 °C | Cc1nc(N2C(C)C=CC2C)c2[nH]c(-c3ccccc3)cc2n1 (stereo not shown) (as salt: hydrochloride) (hydrate or solvate) [Example 220, 4-(2,5-Dimethyl(3-pyrrolinyl)-2-methyl-6-phenylpyrrolo[3,2-d]pyrimidine Hydrochloride Hydrate] |
| 265 to 268 °C | Cc1nc(N2CCCCC2)c2[nH]c(-c3ccc(Cl)c(Cl)c3)cc2n1.Cl (hydrate or solvate) [Example 118, 6-(3,4-Dichlorophenyl)-2-methyl-4-piperidylpyrrolo[3,2-d]pyrimidine Hydrochloride Monohydrate] |
| > 300 °C | CN(C)c1nc(N2CCCCC2)c2[nH]c(-c3ccccc3)cc2n1 (as salt: hydrochloride) (hydrate or solvate) [Example 203, Hydrochloride Hydrate] |
| > 280 °C | Cc1nc(N2CCCCC2)c2[nH]c(-c3ccc4c(c3)Cc3ccccc3-4)cc2n1.Cl (hydrate or solvate) [Example 127, 6-Fluoren-2-yl-2-methyl-4-piperidylpyrrolo[3,2-d]pyrimidine Hydrochloride Hydrate] |

The next lines start with the compound.

| Structure (SMILES) | melting point |
| --- | --- |
| CCc1nc(N2CCCCC2)c2[nH]c(-c3ccccc3)cc2n1.Cl (hydrate or solvate) [Example 68c, 2-Ethyl-6-phenyl-4-piperidylpyrrolo[3,2-d]pyrimidine Hydrochloride Monohydrate] | 286 to 288 °C (dec.) |
| Cc1nc(N2CCCCC2)c2[nH]c(-c3ccc(Cl)cc3)c(N3CCCC3)c2n1.Cl (hydrate or solvate) | > 280 °C |
| Cc1nc(N2CCCCC2)c2[nH]c(-c3sc(C)nc3C)cc2n1.Cl (hydrate or solvate) | 272 to 273.5 °C |
| Cc1nc(N2CC=CCC2)c2sc(-c3ccccc3)cc2n1 (as salt: hydrochloride) (hydrate or solvate) | 279 to 281 °C |
| Cc1nc(N2CCCCC2)c2[nH]c(-c3cccc(C(F)(F)F)c3)cc2n1.Cl (hydrate or solvate) [Example 107, 2-Methyl-4-piperidyl-6-[3-(trifluoromethyl)phenyl]pyrrolo[3,2-d]pyrimidine Hydrochloride Monohydrate] | 241 to 243 °C |
| Cc1nc(N2CCCCC2)c2[nH]c(-c3ccccc3C(F)(F)F)cc2n1.Cl (hydrate or solvate) | > 280 °C |
| Cc1nc(N2CCCCC2)c2[nH]c(-c3ccccn3)cc2n1.Cl (hydrate or solvate) [Example 77, 2-Methyl-4-piperidyl-6-(2-pyridyl)pyrrolo[3,2-d]pyrimidine Hydrochloride Hydrate] | > 280 °C |
| Cl.FC(F)(F)c1nc(N2CCCCC2)c2[nH]c(-c3ccccc3)cc2n1 (hydrate or solvate) | 235.1 to 237.5 °C (dec.) |
| Cc1nc(N2CCCCC2)c2[nH]c(CS(=O)(=O)c3ccc(Cl)cc3)cc2n1.Cl (hydrate or solvate) | 199 to 201 °C |
| Cc1nc(N2CCCCC2)c2[nH]c(-c3ccccc3)c(C)c2n1.Cl (hydrate or solvate) [Example 90, 2,7-Dimethyl-6-phenyl-4-piperidylpyrrolo[3,2-d]pyrimidine Hydrochloride Monohydrate] | > 280 °C |
| CNc1nc(N2CCCCC2)c2[nH]c(-c3ccccc3)cc2n1 (as salt: hydrochloride) (hydrate or solvate) | 195 to 200 °C |
| Cl.c1ccc(-c2cc3ncnc(N4CCCCC4)c3[nH]2)nc1 (hydrate or solvate) | 279 to 280 °C |
| Cc1nc(N2CCCCC2)c2[nH]c(C)c(Cc3ccccc3)c2n1.Cl (hydrate or solvate) | > 240 °C (dec.) |
| Cl.c1csc(-c2cc3ncnc(N4CCCCC4)c3[nH]2)c1 | > 280 °C |
| Cc1nc(N2CCN(S(=O)(=O)c3cccc4ccccc34)CC2)c2[nH]c(-c3ccccc3)cc2n1.Cl (hydrate or solvate) | 195 °C (dec.) |
| Cc1nc(N2CCCCC2)c2[nH]c(-c3cccnc3)cc2n1.Cl (hydrate or solvate) | > 280 °C |

| Structure (SMILES) | melting point |
| --- | --- |
| Cc1nc(N2CCCCC2)c2[nH]c(-c3ccc(O)c(F)c3)cc2n1.Cl (hydrate or solvate) | > 280 °C |
| Cc1nc(N2CCCCC2)c2[nH]c(-c3ccc(F)c(F)c3)c(C)c2n1.Cl | > 280 °C |
| Nc1nc(N2CCCCC2)c2[nH]c(-c3ccccc3)cc2n1 (as salt: hydrochloride) (hydrate or solvate) [Example 66e, 6-Phenyl-4-piperidylpyrrolo[3,2-d]pyrimidine-2-yl Amine Hydrochloride Hydrate] | > 300 °C (dec.) |
| CCC1CCCCN1c1nc(C)nc2cc(-c3ccccc3)[nH]c12 (stereo not shown) (as salt: hydrochloride) (hydrate or solvate) [Example 64, 2-Methyl-6-phenyl-4-(2-ethylpiperidinyl)pyrrolo[3,2-d]pyrimidine Hydrochloride Hydrate] | 228 to 229 °C |
| c1ccc(-c2cc3nc(N4CCCC4)nc(N4CCCCC4)c3[nH]2)cc1 (as salt: hydrochloride) (hydrate or solvate) | > 272 °C |
| Cc1nc(N2CCCCCC2)c2[nH]c(-c3ccccc3)cc2n1 [Example 8, 4-Homopiperidyl-2-methyl-6-phenylpyrrolo[3,2-d]pyrimidine] | 209 to 210 °C |
| Cc1nc(N2CCCCC2)c2[nH]c(C34C[C@H]5C[C@@H](C3)C[C@@H](C4)C5)cc2n1.Cl (hydrate or solvate) [Example 81d, 6-Adamantanyl-2-methyl-4-piperidylpyrrolo[3,2-d]pyrimidine Hydrochloride Monohydrate] | > 280 °C |
| c1ccc(-c2cc3nc(N4CCN(c5ccccc5)CC4)nc(N4CCCCC4)c3[nH]2)cc1 (as salt: hydrochloride) (hydrate or solvate) | 267.5 to 270 °C |
| CSc1nc(N2CCCCC2)c2[nH]c(-c3ccccc3)cc2n1.Cl (hydrate or solvate) | 281 to 283 °C (dec.) |
| Cc1nc(N2CCCCC2)c2[nH]c(-c3ccc(Cl)c(Cl)c3)c(C)c2n1.Cl (hydrate or solvate) | > 280 °C |
| COc1nc(N2CCCCC2)c2[nH]c(-c3ccccc3)cc2n1 (as salt: hydrochloride) (hydrate or solvate) | 270 to 276 °C |
| Cc1nc(N2CCCCC2)c2[nH]c(-c3ccccc3)cc2n1 (as salt: hydrochloride) [Example 35, 2-methyl-6-phenyl-4-(piperidinyl)pyrrolo[3,2-d]pyrimidine] | 293 to 294 °C |
| Cc1c(-c2ccccc2)[nH]c2c(N3CCCCC3)ncnc12.Cl | 281 to 282.5 °C |
| Cc1nc(N2CCCCC2)c2[nH]c(-c3ccc(C(F)(F)F)cc3)c(C)c2n1.Cl | > 280 °C |
| Cc1nc(N2CCCCC2)c2[nH]c(-c3cccc(F)c3)cc2n1.Cl (hydrate or solvate) [Example 103, 6-(3-Fluorophenyl)-2-methyl-4-piperidylpyrrolo[3,2-d]pyrimidine Hydrochloride Monohydrate] | > 285 °C |
| Cc1cc(N2CCCCC2)c2oc(-c3ccccc3)cc2n1.Cl | > 280 °C |
